# According to patent US20050261273A1, “Substituted urea and carbamate, phenacyl-2-hydroxy-3-diaminoalkane, and benzamide-2-hydroxy-3-diaminoalkane aspartyl-protease inhibitors” (priority 2004, published 2005):
# Target: cathepsin D (catD) versus beta-secretase (BACE) (Homo sapiens, UniProt P07339)
# Experiment: CatD/BACE selectivity (ratio of IC50 values)
# Assay type: biochemical
# Details: each value is an average of four experimental runs; multiple values = more than one experiment
# Procedure: (§1) Investigation of potential beta-secretase inhibitors produced compounds with increased selectivity for beta-secretase over other aspartyl proteases such as cathepsin D (catD), cathepsin E (catE), Human Immunodeficiency Viral (HIV) protease, and renin. Selectivity was calculated as a ratio of inhibition (IC50) values in which the inhibition of beta-secretase was compared to the inhibition of other aspartyl proteases.
# The compounds of formula (I) can be selective for beta-secretase versus catD.
# (§2) In the following examples, each value is an average of four experimental runs and multiple values for one compoundd indicate that more than one experiment was conducted.
# Chain of cathepsin D (catD) versus beta-secretase (BACE) (P07339 65-412): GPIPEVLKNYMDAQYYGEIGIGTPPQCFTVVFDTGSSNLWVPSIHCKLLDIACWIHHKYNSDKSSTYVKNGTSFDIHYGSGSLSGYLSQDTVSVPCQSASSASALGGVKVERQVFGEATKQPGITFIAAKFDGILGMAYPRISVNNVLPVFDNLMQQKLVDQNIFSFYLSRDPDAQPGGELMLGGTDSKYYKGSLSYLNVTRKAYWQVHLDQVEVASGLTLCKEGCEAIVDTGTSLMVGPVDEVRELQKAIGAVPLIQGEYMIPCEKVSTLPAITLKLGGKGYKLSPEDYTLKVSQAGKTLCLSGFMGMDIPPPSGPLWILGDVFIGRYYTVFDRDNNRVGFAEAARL
row,SMILES,IC50 CatD/IC50 BACE
1,CN(c1cccc(C(=O)NC(Cc2cc(F)cc(F)c2)C(O)CNC2(c3cccc(C(C)(C)C)c3)CCCCC2)c1)S(C)(=O)=O (stereo not drawn) [Example 325A-2],3.1
2,CC(C)(C)c1cccc(C2(NCC(O)C(Cc3cc(F)cc(F)c3)NC(=O)COCC(=O)O)CCCCC2)c1 (stereo not drawn) [Example 325A-3],2.0
3,CC(C)(C)c1cccc(C2(NCC(O)C(Cc3cc(F)cc(F)c3)NC(=O)CCCC(=O)O)CCCCC2)c1 (stereo not drawn) [Example 325A-4],1.9
4,CC(C)(CCC(=O)NC(Cc1cc(F)cc(F)c1)C(O)CNC1(c2cccc(C(C)(C)C)c2)CCCCC1)C(=O)O (stereo not drawn) [Example 325A-5],1.7
5,CC(C)(C)c1cccc(C2(NCC(O)C(Cc3cc(F)cc(F)c3)NC(=O)c3csc(NS(C)(=O)=O)n3)CCCCC2)c1 (stereo not drawn) [Example 325A-6],5.0

# Target: T1, cathepsin E (catE) versus beta-secretase (BACE) (Homo sapiens, UniProt P14091)
# T1 sequence (P14091 54-396): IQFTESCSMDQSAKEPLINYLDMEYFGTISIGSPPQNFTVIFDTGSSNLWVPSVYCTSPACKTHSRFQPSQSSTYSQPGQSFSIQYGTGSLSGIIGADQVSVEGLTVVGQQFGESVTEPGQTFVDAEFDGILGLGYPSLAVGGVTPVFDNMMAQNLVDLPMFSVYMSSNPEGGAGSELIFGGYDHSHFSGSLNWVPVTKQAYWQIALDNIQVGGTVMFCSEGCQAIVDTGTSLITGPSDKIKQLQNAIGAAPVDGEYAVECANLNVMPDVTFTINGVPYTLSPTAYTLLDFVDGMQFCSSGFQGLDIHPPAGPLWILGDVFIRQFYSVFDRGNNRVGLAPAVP
# Experiment: CatE/BACE selectivity (ratio of IC50 values)
# Assay type: biochemical
# Details: each value is an average of four experimental runs; multiple values = more than one experiment
# Procedure: as §1
# The compounds of formula (I) can be selective for beta-secretase versus catE. […] Selectivity is reported as the ratio of IC50(catE):IC50(BACE).
# as §2
row,SMILES,IC50 CatE/IC50 BACE
1,CC(C)(CCC(=O)NC(Cc1cc(F)cc(F)c1)C(O)CNC1(c2cccc(C(C)(C)C)c2)CCCCC1)C(=O)O (stereo not drawn) [Example 325B-1],8.3
2,CC(C)(C)c1cccc(C2(NCC(O)C(Cc3cc(F)cc(F)c3)NC(=O)CCCC(=O)O)CCCCC2)c1 (stereo not drawn) [Example 325B-3],3.4
3,CC(C)(C)c1cccc(C2(NCC(O)C(Cc3cc(F)cc(F)c3)NC(=O)COCC(=O)O)CCCCC2)c1 (stereo not drawn) [Example 325B-4],3.2
4,CC(C)(C)c1cccc(C2(NCC(O)C(Cc3cc(F)cc(F)c3)NC(=O)c3csc(NS(C)(=O)=O)n3)CCCCC2)c1 (stereo not drawn) [Example 325B-5],1.2
